Values quoted from earlier work in publication PMC11267572, “A Repurposed Drug Interferes with Nucleic Acid to Inhibit the Dual Activities of Coronavirus Nsp13” (ACS Chemical Biology, 2024).

System: SARS-CoV-2 Omicron variant
Design: method as in PMID 36899912
Details: bronchial epithelial cells; cited from earlier work

In the case of `O=C(NCc1ccc(Oc2ccccc2)cc1)c1nc(-c2cc(Br)c(O)c(Br)c2)no1` [IOWH-032], the “inhibition of viral replication” value is given as “micromolar inhibition”.
